From patent US12331026B2 (NiKang Therapeutics, Inc., priority 2022, dated 2025)

Biological target: T1, CDK2 (Homo sapiens, UniProt P24941)
T1 construct: endogenous in cells; host or cells: OVCAR3 cells
Experiment: Phospho-RB measurement in OVCAR3 cells (HTRF phospho-RB S807/811)
Assay type: cell-based
Details: phosphorylation of RB protein at S807/811, HTRF, 24 h compound treatment, 0.3 to 10,000 nM, read-out: pRb (uM)
In short: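 IC50 values come from four-parameter logistic fits of the DMSO-normalised 665/620 nm TR-FRET ratio for phospho-RB (S807/811). Antibody detection ran 4 h at room temperature.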

SMILES | IC50 [µM]
O=S1(=O)CC2(CC(Nc3nccc(-c4sc(N5C6CCC5CN(c5ccccn5)C6)nc4-c4cccc(NS(=O)(=O)c5c(F)cccc5F)c4F)n3)C2)C1 [Example 43, N-(3-(5-(2-((2,2-dioxido-2-thiaspiro[3.3]heptan-6-yl)amino)-pyrimidin-4-yl)-2-(3-(pyridin-2-yl)-3,8-diazabicyclo[3.2.1]octan-8-yl)thiazol-4-yl)-2-fluorophenyl)-2,6-difluorobenzenesulfonamide] | 0.46
CC1(C)CCCN1c1nc(-c2cccc(NS(=O)(=O)c3c(F)cccc3F)c2F)c(-c2ccnc(NC3CC4(C3)CS(=O)(=O)C4)n2)s1 [Example 24, N-(3-(2-(2,2-dimethylpyrrolidin-1-yl)-5-(2-((2,2-dioxido-2-thiaspiro[3.3]heptan-6-yl)amino)pyrimidin-4-yl)thiazol-4-yl)-2-fluorophenyl)-2,6-difluorobenzenesulfonamide] | 1.46
CC1(C)CCN1c1nc(-c2cccc(NS(=O)(=O)c3c(F)cccc3F)c2F)c(-c2ccnc(NC3CC4(C3)CS(=O)(=O)C4)n2)s1 [Example 29, N-(3-(2-(2,2-dimethylazetidin-1-yl)-5-(2-((2,2-dioxido-2-thiaspiro[3.3]heptan-6-yl)amino)pyrimidin-4-yl)thiazol-4-yl)-2-fluorophenyl)-2,6-difluorobenzenesulfonamide] | 0.27
C[C@@H]1CNC[C@@H](C)N1c1nc(-c2cccc(NS(=O)(=O)c3c(F)cccc3F)c2F)c(-c2ccnc(NC3CC4(C3)CS(=O)(=O)C4)n2)s1 [Example 59, N-(3-(2-((2R,6R)-2,6-dimethylpiperazin-1-yl)-5-(2-((2,2-dioxido-2-thiaspiro[3.3]heptan-6-yl)amino)pyrimidin-4-yl)thiazol-4-yl)-2-fluorophenyl)-2,6-difluorobenzenesulfonamide] | 3.01
O=S1(=O)CC2(CC(Nc3nccc(-c4sc(N5C6CCC5CN(Cc5ccccc5)C6)nc4-c4cccc(NS(=O)(=O)c5c(F)cccc5F)c4F)n3)C2)C1 [Example 40, N-(3-(2-(3-benzyl-3,8-diazabicyclo[3.2.1]octan-8-yl)-5-(2-((2,2-dioxido-2-thiaspiro[3.3]heptan-6-yl)amino)pyrimidin-4-yl)thiazol-4-yl)-2-fluorophenyl)-2,6-difluorobenzenesulfonamide] | 1.7
O=S1(=O)CC(N2CC3CCC(C2)N3c2nc(-c3cccc(NS(=O)(=O)c4c(F)cccc4F)c3F)c(-c3ccnc(NC4CC5(C4)CS(=O)(=O)C5)n3)s2)C1 [Example 45, N-(3-(5-(2-((2,2-dioxido-2-thiaspiro[3.3]heptan-6-yl)amino)-pyrimidin-4-yl)-2-(3-(1,1-dioxidothietan-3-yl)-3,8-diazabicyclo[3.2.1]octan-8-yl)thiazol-4-yl)-2-fluorophenyl)-2,6-difluorobenzenesulfonamide] | 4.14
C[C@H]1COC[C@H](C)N1c1nc(-c2cccc(NS(=O)(=O)c3c(F)cccc3F)c2F)c(-c2ccnc(N[C@H]3[C@@H]4CS(=O)(=O)C[C@@H]43)n2)s1 [Example 101, N-(3-(2-((3S,5S)-3,5-dimethylmorpholino)-5-(2-(((1R,5S,6r)-3,3-dioxido-3-thiabicyclo[3.1.0]hexan-6-yl)amino)pyrimidin-4-yl)thiazol-4-yl)-2-fluorophenyl)-2,6-difluorobenzenesulfonamide] | 0.17
O=S1(=O)C[C@@H]2[C@H](C1)[C@H]2Nc1nccc(-c2sc(N3C4CCC3CN(C3CC(F)(F)C3)C4)nc2-c2cccc(NS(=O)(=O)c3c(F)cccc3F)c2F)n1 [Example 107, N-(3-(2-(3-(3,3-difluorocyclobutyl)-3,8-diazabicyclo[3.2.1]octan-8-yl)-5-(2-(((1R,5S,6r)-3,3-dioxido-3-thiabicyclo[3.1.0]hexan-6-yl)amino)pyrimidin-4-yl)thiazol-4-yl)-2-fluorophenyl)-2,6-difluorobenzenesulfonamide] | 0.15
O=S1(=O)C[C@@H]2[C@H](C1)[C@H]2Nc1nccc(-c2sc(C3(C(F)F)CC3)nc2-c2cccc(NS(=O)(=O)c3c(F)cccc3OC(F)F)c2F)n1 [Example 129, 2-(difluoromethoxy)-N-(3-(2-(1-(difluoromethyl)cyclopropyl)-5-(2-(((1R,5S,6r)-3,3-dioxido-3-thiabicyclo[3.1.0]hexan-6-yl)amino)-pyrimidin-4-yl)thiazol-4-yl)-2-fluorophenyl)-6-fluorobenzene-sulfonamide] | 0.09
CN1CC2CCC(C1)N2c1nc(-c2cccc(NS(=O)(=O)c3c(F)cccc3OC(F)F)c2F)c(-c2ccnc(N[C@H]3[C@@H]4CS(=O)(=O)C[C@@H]43)n2)s1 [Example 122, 2-(difluoromethoxy)-N-(3-(5-(2-(((1R,5S,6r)-3,3-dioxido-3-thiabicyclo[3.1.0]hexan-6-yl)amino)pyrimidin-4-yl)-2-(3-methyl-3,8-diazabicyclo[3.2.1]octan-8-yl)thiazol-4-yl)-2-fluorophenyl)-6-fluorobenzenesulfonamide] | 0.04
O=S1(=O)CC2(CC(Nc3nccc(-c4sc(N5C6CCC5CN(C5CCOCC5)C6)nc4-c4cccc(NS(=O)(=O)c5c(F)cccc5F)c4F)n3)C2)C1 [Example 148, N-(3-(5-(2-((2,2-dioxido-2-thiaspiro[3.3]heptan-6-yl)amino)pyrimidin-4-yl)-2-(3-(tetrahydro-2H-pyran-4-yl)-3,8-diazabicyclo[3.2.1]octan-8-yl)thiazol-4-yl)-2-fluorophenyl)-2,6-difluorobenzenesulfonamide] | 0.4
CN1CC2CCC(C1)N2c1nc(-c2cccc(NS(=O)(=O)c3c(F)cccc3OC(F)F)c2F)c(-c2ccnc(NC3CC4(C3)CS(=O)(=O)C4)n2)s1 [Example 66, 2-(difluoromethoxy)-N-(3-(5-(2-((2,2-dioxido-2-thiaspiro[3.3]-heptan-6-yl)amino)pyrimidin-4-yl)-2-(3-methyl-3,8-diazabicyclo[3.2.1]octan-8-yl)thiazol-4-yl)-2-fluorophenyl)-6-fluorobenzenesulfonamide] | 0.15

The remaining lines, values ahead:

IC50 [µM] | SMILES
0.15 | O=S1(=O)CC2(CC(Nc3nccc(-c4sc(C56CC(C(F)(F)F)(C5)C6)nc4-c4cccc(NS(=O)(=O)c5c(Cl)cccc5C(F)(F)F)c4F)n3)C2)C1 [Example 91, 2-chloro-N-(3-(5-(2-((2,2-dioxido-2-thiaspiro[3.3]heptan-6-yl)amino)pyrimidin-4-yl)-2-(3-(trifluoromethyl)bicyclo-[1.1.1]pentan-1-yl)thiazol-4-yl)-2-fluorophenyl)-6-(trifluoromethyl)benzenesulfonamide]
0.05 | CS(=O)(=O)[C@H]1CC[C@@H](Nc2nccc(-c3sc(C45CC(C4)C5)nc3-c3cccc(NS(=O)(=O)c4c(F)cccc4C(F)(F)F)c3F)n2)CC1 [Example 132, N-(3-(2-(bicyclo[1.1.1]pentan-1-yl)-5-(2-(((1s,4s)-4-(methylsulfonyl)cyclohexyl)amino)pyrimidin-4-yl)thiazol-4-yl)-2-fluorophenyl)-2-fluoro-6-(trifluoromethyl)benzenesulfonamide]
0.03 | O=S1(=O)CC2(CC(Nc3nccc(-c4sc(C5(C(F)(F)F)CCC5)nc4-c4cccc(NS(=O)(=O)c5c(F)cccc5C(F)(F)F)c4F)n3)C2)C1 [Example 84, N-(3-(5-(2-((2,2-dioxido-2-thiaspiro[3.3]heptan-6-yl)amino)-pyrimidin-4-yl)-2-(1-(trifluoromethyl)cyclobutyl)thiazol-4-yl)-2-fluorophenyl)-2-fluoro-6-(trifluoromethyl)benzenesulfonamide]
0.066 | CS(=O)(=O)C1CCC(Nc2nccc(-c3sc(C45CC(F)(C4)C5)nc3-c3cccc(NS(=O)(=O)c4c(F)cccc4C(F)(F)F)c3F)n2)CC1 (stereo not drawn) [Example 27, 2-fluoro-N-(2-fluoro-3-(2-(3-fluorobicyclo[1.1.1]pentan-1-yl)-5-(2-(((1s,4s)-4-(methylsulfonyl)cyclohexyl)amino)pyrimidin-4-yl)thiazol-4-yl)phenyl)-6-(trifluoromethyl)benzenesulfonamide]
0.19 | O=S1(=O)C[C@@H]2[C@H](C1)[C@@H]2Nc1nccc(-c2sc(C34CC(C3)C4)nc2-c2cccc(NS(=O)(=O)c3c(F)cccc3C(F)(F)F)c2F)n1 [Example 102, N-(3-(2-(bicyclo[1.1.1]pentan-1-yl)-5-(2-(((1R,5S,6s)-3,3-dioxido-3-thiabicyclo[3.1.0]hexan-6-yl)amino)pyrimidin-4-yl)thiazol-4-yl)-2-fluorophenyl)-2-fluoro-6-(trifluoromethyl)benzenesulfonamide]
0.09 | O=S1(=O)C[C@@H]2[C@H](C1)[C@H]2Nc1nccc(-c2sc(C34CCC(CC3)CC4)nc2-c2cccc(NS(=O)(=O)c3c(F)cccc3F)c2F)n1 [Example 116, N-(3-(2-(bicyclo[2.2.2]octan-1-yl)-5-(2-(((1R,5S,6r)-3,3-dioxido-3-thiabicyclo[3.1.0]hexan-6-yl)amino)pyrimidin-4-yl)thiazol-4-yl)-2-fluorophenyl)-2,6-difluorobenzenesulfonamide]
0.1 | O=S1(=O)C[C@@H]2[C@H](C1)[C@@H]2Nc1nccc(-c2sc(N3C4CCC3CN(C3CC(F)(F)C3)C4)nc2-c2cccc(NS(=O)(=O)c3c(F)cccc3C(F)(F)F)c2F)n1 [Example 108, N-(3-(2-(3-(3,3-difluorocyclobutyl)-3,8-diazabicyclo[3.2.1]octan-8-yl)-5-(2-(((1R,5S,6s)-3,3-dioxido-3-thiabicyclo[3.1.0]hexan-6-yl)amino)pyrimidin-4-yl)thiazol-4-yl)-2-fluorophenyl)-2-fluoro-6-(trifluoromethyl)benzenesulfonamide]
0.3 | C[C@H]1COC[C@H](C)N1c1nc(-c2cccc(NS(=O)(=O)c3c(F)cccc3C(F)(F)F)c2F)c(-c2ccnc(N[C@H]3[C@@H]4CS(=O)(=O)C[C@@H]43)n2)s1 [Example 114, N-(3-(2-((3S,5S)-3,5-dimethylmorpholino)-5-(2-(((1R,5S,6r)-3,3-dioxido-3-thiabicyclo[3.1.0]hexan-6-yl)amino)pyrimidin-4-yl)thiazol-4-yl)-2-fluorophenyl)-2-fluoro-6-(trifluoromethyl)benzenesulfonamide]
0.24 | O=S1(=O)CC2(CC(Nc3nccc(-c4sc(N5CC6CCC(CC6)C5)nc4-c4cccc(NS(=O)(=O)c5c(F)cccc5F)c4F)n3)C2)C1 [Example 21]
